{"source": "PubChem BioAssay AID493139", "about": "(Sanford-Burnham Center for Chemical Genomics, 2011)", "note": "The source made the active and inactive calls. No rule for the calls is given here."}
{"target": "Alkaline phosphatase, germ cell type (Homo sapiens) (UniProt P10696)", "sequence (P10696 whole entry, looked up)": "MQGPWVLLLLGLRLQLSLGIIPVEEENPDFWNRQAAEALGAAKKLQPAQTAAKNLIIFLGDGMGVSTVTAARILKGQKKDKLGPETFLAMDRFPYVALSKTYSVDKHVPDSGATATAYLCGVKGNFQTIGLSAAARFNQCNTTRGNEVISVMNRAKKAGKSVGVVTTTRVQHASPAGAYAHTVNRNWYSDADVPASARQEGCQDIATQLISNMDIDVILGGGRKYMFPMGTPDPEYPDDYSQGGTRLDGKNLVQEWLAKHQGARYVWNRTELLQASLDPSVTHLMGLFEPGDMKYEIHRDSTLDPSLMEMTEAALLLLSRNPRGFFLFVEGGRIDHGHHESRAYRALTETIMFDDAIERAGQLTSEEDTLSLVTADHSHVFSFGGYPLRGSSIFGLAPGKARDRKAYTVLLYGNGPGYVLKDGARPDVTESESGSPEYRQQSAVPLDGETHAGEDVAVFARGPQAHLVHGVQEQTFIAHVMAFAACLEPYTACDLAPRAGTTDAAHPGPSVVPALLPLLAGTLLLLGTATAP", "experiment": "placental-like alkaline phosphatase activators or inhibitors – biochemical, human placental-like ALPPL2 isozyme, selectivity assay for mouse IAP activator project, SAR follow-up (AID 493139)", "details": "purified human placental-like alkaline phosphatase, enzymatic activity"}
{"smiles": "CC(C)c1ccc(NC(=O)CCNS(=O)(=O)c2ccc3[nH]c(=O)oc3c2)cc1", "IC50 (inhibition of PLAP activity)": "> 100 µM (inactive)"}
{"smiles": "Cc1ccc(/C=C2\\SC(=S)N(C3CCS(=O)(=O)C3)C2=O)o1", "note": "(stereo not given)", "IC50 (inhibition of PLAP activity)": "> 100 µM (inactive)"}
{"smiles": "COc1ccc(NC(=O)CSc2sc3c(O)cc(=O)[nH]c3c2C#N)c(OC)c1", "IC50 (inhibition of PLAP activity)": "> 100 µM (inactive)"}
{"smiles": "O=C(CCN1C(=O)/C(=C/c2ccco2)SC1=S)Nc1ccc(O)cc1C(=O)O", "IC50 (inhibition of PLAP activity)": "> 100 µM (inactive)"}
{"smiles": "O=C(N/N=C/C1CC=CCC1)c1cc(O)c(O)c(O)c1", "note": "(stereo not given)", "IC50 (inhibition of PLAP activity)": "> 100 µM (inactive)"}
{"smiles": "CC(C(=O)NCCc1ccc(O)c(O)c1)N1C(=O)/C(=C\\c2ccco2)SC1=S", "note": "(stereo not given)", "IC50 (inhibition of PLAP activity)": "> 100 µM (inactive)"}
{"smiles": "O=C(CN1C(=O)/C(=C/c2ccco2)SC1=S)NC1C=CS(=O)(=O)C1", "note": "(stereo not given)", "IC50 (inhibition of PLAP activity)": "28.5 µM"}
{"smiles": "COC(=O)NNC(=O)c1cc(OC)c(OC)c(OC)c1", "IC50 (inhibition of PLAP activity)": "> 100 µM (inactive)"}
{"smiles": "O=C(CN1C(=O)/C(=C/c2ccco2)SC1=S)N[C@@H]1CSC[C@@H]1O", "IC50 (inhibition of PLAP activity)": "> 100 µM (inactive)"}
{"smiles": "COc1cccc(CNC(=O)CCNS(=O)(=O)c2ccc3[nH]c(=O)oc3c2)c1", "IC50 (inhibition of PLAP activity)": "> 100 µM (inactive)"}
{"smiles": "COc1ccc(CNC(=O)CSc2sc3c(O)cc(=O)[nH]c3c2C#N)cc1", "IC50 (inhibition of PLAP activity)": "> 100 µM (inactive)"}
{"smiles": "N#Cc1c(SCC(=O)Nc2nncs2)sc2c(O)cc(=O)[nH]c12", "IC50 (inhibition of PLAP activity)": "> 100 µM (inactive)"}
{"smiles": "O=C(CN1C(=O)/C(=C/c2ccco2)SC1=S)NCCc1ccc(O)cc1", "IC50 (inhibition of PLAP activity)": "> 100 µM (inactive)"}
{"smiles": "COc1ccc(NC(=S)NCCC(c2ccccc2)c2ccccc2)cc1", "IC50 (inhibition of PLAP activity)": "40.7 µM"}
{"smiles": "O=C(NCCc1ccc(Cl)cc1)C1CCCN(S(=O)(=O)c2ccc3[nH]c(=O)oc3c2)C1", "note": "(stereo not given)", "IC50 (inhibition of PLAP activity)": "> 100 µM (inactive)"}
{"smiles": "O=C(CN1C(=O)/C(=C/c2ccco2)SC1=S)Nc1ccc2nccnc2c1", "IC50 (inhibition of PLAP activity)": "> 100 µM (inactive)"}
{"smiles": "N#Cc1cccc(NC(=O)CCNS(=O)(=O)c2ccc3[nH]c(=O)oc3c2)c1", "IC50 (inhibition of PLAP activity)": "> 100 µM (inactive)"}
{"smiles": "N#Cc1c(SCC(=O)Nc2ccc(Cl)cc2Cl)sc2c(O)cc(=O)[nH]c12", "IC50 (inhibition of PLAP activity)": "> 100 µM (inactive)"}
{"smiles": "COc1cc(Cl)c(C)cc1NC(=O)CSc1sc2c(O)cc(=O)[nH]c2c1C#N", "IC50 (inhibition of PLAP activity)": "> 100 µM (inactive)"}
{"smiles": "O=C(CN1C(=O)/C(=C\\c2ccco2)SC1=S)Nc1ccccc1C(=O)O", "IC50 (inhibition of PLAP activity)": "> 100 µM (inactive)"}
{"smiles": "O=C(O)CC(C(=O)O)N1C(=O)/C(=C/c2ccc(-c3nc4ccccc4s3)o2)SC1=S", "note": "(stereo not given)", "IC50 (inhibition of PLAP activity)": "> 100 µM (inactive)"}
{"smiles": "CSc1cccc(NC(=O)CCNS(=O)(=O)c2ccc3[nH]c(=O)oc3c2)c1", "IC50 (inhibition of PLAP activity)": "> 100 µM (inactive)"}
{"smiles": "NS(=O)(=O)c1ccc(-c2ccc(/C=C3\\SC(=S)N(C4CCS(=O)(=O)C4)C3=O)o2)cc1", "note": "(stereo not given)", "IC50 (inhibition of PLAP activity)": "> 100 µM (inactive)"}
{"smiles": "N#Cc1c(SCC(=O)Nc2nc3ccccc3s2)sc2c(O)cc(=O)[nH]c12", "IC50 (inhibition of PLAP activity)": "> 100 µM (inactive)"}
{"smiles": "CCCSc1nnc(NC(=O)CSc2sc3c(O)cc(=O)[nH]c3c2C#N)s1", "IC50 (inhibition of PLAP activity)": "> 100 µM (inactive)"}
{"smiles": "O=S(=O)(Nc1ncccn1)c1ccc(NC(=S)NCCC(c2ccccc2)c2ccccc2)cc1", "IC50 (inhibition of PLAP activity)": "> 100 µM (inactive)"}
{"smiles": "O=C(N/N=C/C1CC2CCC1C2)c1cc(O)c(O)c(O)c1", "note": "(stereo not given)", "IC50 (inhibition of PLAP activity)": "> 100 µM (inactive)"}
{"smiles": "COc1cc(C(=O)NNC(=O)C2CC2)cc(OC)c1OC", "IC50 (inhibition of PLAP activity)": "> 100 µM (inactive)"}
{"smiles": "COc1cc(C(=O)NNC(=S)NC(=O)c2ccccc2C)cc(OC)c1OC", "IC50 (inhibition of PLAP activity)": "35.7 µM"}
{"smiles": "CCSc1nnc(NC(=O)CSc2sc3c(O)cc(=O)[nH]c3c2C#N)s1", "IC50 (inhibition of PLAP activity)": "> 100 µM (inactive)"}
{"smiles": "CCc1nnc(NC(=O)CSc2sc3c(O)cc(=O)[nH]c3c2C#N)s1", "IC50 (inhibition of PLAP activity)": "> 100 µM (inactive)"}
{"smiles": "O=C(CN1C(=O)/C(=C/c2ccco2)SC1=S)Nc1ccc(C(=O)O)cc1", "IC50 (inhibition of PLAP activity)": "> 100 µM (inactive)"}
{"smiles": "COc1ccc(N2CCN(C(=O)CN3C(=O)/C(=C\\c4ccco4)SC3=S)CC2)cc1", "IC50 (inhibition of PLAP activity)": "> 100 µM (inactive)"}
{"smiles": "COc1cccc(/C=N/NC(=O)c2cc(O)c(O)c(O)c2)c1", "IC50 (inhibition of PLAP activity)": "> 100 µM (inactive)"}
{"smiles": "CC(C(=O)Nc1ccc(C(=O)O)cc1)N1C(=O)/C(=C\\c2ccco2)SC1=S", "note": "(stereo not given)", "IC50 (inhibition of PLAP activity)": "21.9 µM"}
{"smiles": "COc1cc([N+](=O)[O-])ccc1NC(=S)NCCC(c1ccccc1)c1ccccc1", "IC50 (inhibition of PLAP activity)": "> 100 µM (inactive)"}
{"smiles": "COc1cc(C(=O)NN=Cc2ccccn2)cc(OC)c1OC", "IC50 (inhibition of PLAP activity)": "31.3 µM"}
{"smiles": "CN(C(=O)CN1C(=O)/C(=C\\c2ccco2)SC1=S)C1CCS(=O)(=O)C1", "note": "(stereo not given)", "IC50 (inhibition of PLAP activity)": "> 100 µM (inactive)"}
{"smiles": "Cc1csc(NC(=O)CSc2sc3c(O)cc(=O)[nH]c3c2C#N)n1", "IC50 (inhibition of PLAP activity)": "> 100 µM (inactive)"}
{"smiles": "N#Cc1c(SCC(=O)Nc2nccs2)sc2c(O)cc(=O)[nH]c12", "IC50 (inhibition of PLAP activity)": "> 100 µM (inactive)"}
{"smiles": "Cc1ccc(Cl)cc1NC(=O)CSc1sc2c(O)cc(=O)[nH]c2c1C#N", "IC50 (inhibition of PLAP activity)": "> 100 µM (inactive)"}
{"smiles": "COC(=O)c1ccc(C)c(NC(=O)CSc2sc3c(O)cc(=O)[nH]c3c2C#N)c1", "IC50 (inhibition of PLAP activity)": "> 100 µM (inactive)"}
{"smiles": "COc1ccccc1NC(=O)CCNS(=O)(=O)c1ccc2[nH]c(=O)oc2c1", "IC50 (inhibition of PLAP activity)": "> 100 µM (inactive)"}
{"smiles": "O=C(CCCN1C(=O)/C(=C/c2ccco2)SC1=S)Nc1ccccc1", "IC50 (inhibition of PLAP activity)": "> 100 µM (inactive)"}
{"smiles": "N#Cc1c(SCC(=O)Nc2nc3ccc(Br)cc3s2)sc2c(O)cc(=O)[nH]c12", "IC50 (inhibition of PLAP activity)": "> 100 µM (inactive)"}
{"smiles": "CN1CCC(=NNC(=O)c2cc(O)c(O)c(O)c2)CC1", "IC50 (inhibition of PLAP activity)": "> 100 µM (inactive)"}
{"smiles": "O=[N+]([O-])c1ccc(NC(=S)NCCC(c2ccccc2)c2ccccc2)cc1", "IC50 (inhibition of PLAP activity)": "> 100 µM (inactive)"}
{"smiles": "N#Cc1c(SCC(=O)Nc2cccc(F)c2)sc2c(O)cc(=O)[nH]c12", "IC50 (inhibition of PLAP activity)": "> 100 µM (inactive)"}
{"smiles": "O=C(CCNS(=O)(=O)c1ccc2[nH]c(=O)oc2c1)Nc1cccc(-c2ccno2)c1", "IC50 (inhibition of PLAP activity)": "> 100 µM (inactive)"}
{"smiles": "CC(C(=O)N(C)C1CCS(=O)(=O)C1)N1C(=O)/C(=C/c2ccco2)SC1=S", "note": "(stereo not given)", "IC50 (inhibition of PLAP activity)": "> 100 µM (inactive)"}
{"smiles": "COc1cc(C(=O)NNc2nc3cc4c(cc3s2)OCO4)cc(OC)c1OC", "IC50 (inhibition of PLAP activity)": "15.3 µM"}
{"smiles": "CCN(CC)C(=O)CSc1sc2c(O)cc(=O)[nH]c2c1C#N", "IC50 (inhibition of PLAP activity)": "> 100 µM (inactive)"}
{"smiles": "Cc1ccc(NC(=O)CSc2sc3c(O)cc(=O)[nH]c3c2C#N)c(F)c1", "IC50 (inhibition of PLAP activity)": "> 100 µM (inactive)"}
{"smiles": "CCOc1ccc2nc(NC(=O)CN(C)S(=O)(=O)c3ccc4[nH]c(=O)oc4c3)sc2c1", "IC50 (inhibition of PLAP activity)": "> 100 µM (inactive)"}
{"smiles": "O=C(CN1C(=O)/C(=C\\c2ccco2)SC1=S)Nc1ccc(C(=O)O)cc1", "IC50 (inhibition of PLAP activity)": "> 100 µM (inactive)"}
{"smiles": "CCc1ccc(NC(=O)CN(C)S(=O)(=O)c2ccc3[nH]c(=O)oc3c2)cc1", "IC50 (inhibition of PLAP activity)": "> 100 µM (inactive)"}
{"smiles": "CC(C(=O)NCCc1ccc(O)cc1)N1C(=O)/C(=C/c2ccco2)SC1=S", "note": "(stereo not given)", "IC50 (inhibition of PLAP activity)": "> 100 µM (inactive)"}
{"smiles": "COc1cc(C(=O)NNC(=S)NC(=O)c2ccc(Cl)cc2)cc(OC)c1OC", "IC50 (inhibition of PLAP activity)": "22 µM"}
{"smiles": "COc1ccc(CNC(=O)CSc2sc3c(O)cc(=O)[nH]c3c2C#N)cc1OC", "IC50 (inhibition of PLAP activity)": "> 100 µM (inactive)"}
{"smiles": "CCOc1ccccc1NC(=O)CCNS(=O)(=O)c1ccc2[nH]c(=O)oc2c1", "IC50 (inhibition of PLAP activity)": "> 100 µM (inactive)"}
